Experimental findings from US6046331A, “Imidazolones and their use in treating benign prostatic hyperplasia and other disorders” (Synaptic Pharmaceutical Corporation, priority 1998, dated 2000) are described below.

By Ki is commonly meant a dissociation constant, usually derived from enzyme kinetics or from competition with a known ligand.

The assay concerns the target T1, human α1b receptor (Homo sapiens, UniProt P35368).
T1 construct: The entire coding region of α1b (1563 bp); expressed in transfected cells; host or cells: LM(tk-) mouse fibroblast line L-α1B, ATCC CR 11139
T1 sequence (P35368 1-520): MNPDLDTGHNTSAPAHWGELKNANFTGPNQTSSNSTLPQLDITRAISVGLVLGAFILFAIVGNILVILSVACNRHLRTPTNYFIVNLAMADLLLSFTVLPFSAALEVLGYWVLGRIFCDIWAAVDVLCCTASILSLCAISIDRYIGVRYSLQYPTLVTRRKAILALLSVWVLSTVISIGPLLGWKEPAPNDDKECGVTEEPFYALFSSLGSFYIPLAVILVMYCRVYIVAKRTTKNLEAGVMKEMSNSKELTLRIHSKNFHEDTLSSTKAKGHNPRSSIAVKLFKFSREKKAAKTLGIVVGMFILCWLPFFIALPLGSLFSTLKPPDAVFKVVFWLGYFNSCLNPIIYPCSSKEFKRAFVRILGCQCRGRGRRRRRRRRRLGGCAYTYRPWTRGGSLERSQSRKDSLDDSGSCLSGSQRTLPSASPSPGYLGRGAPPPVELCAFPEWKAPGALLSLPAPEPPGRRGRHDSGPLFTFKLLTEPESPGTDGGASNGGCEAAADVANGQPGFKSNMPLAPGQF
The experiment in a line: Radioligand binding ([^3 H]prazosin) at cloned human α1b receptor. To be noted: LM(tk-) cell membranes, read-out: hα1b Ki. Here is the method:
Binding affinities were measured for selected compounds of the invention at six cloned human α1 and α2 receptor subtypes, as well as at the L-type calcium channel. The protocols for these experiments are given below.
The activity of compounds at the different human receptors was determined in vitro using cultured cell lines that selectively express the receptor of interest. These cell lines were prepared by transfecting the cloned cDNA or cloned genomic DNA or constructs containing both genomic DNA and cDNA encoding the human α-adrenergic receptors as follows:
α1b Human Adrenergic Receptor: The entire coding region of α1b (1563 bp), including 200 base pairs and 5' untranslated sequence (5' UT) and 600 bp of 3' untranslated sequence (3' UT), was cloned into the EcoRI site of pCEXV-3 eukaryotic expression vector. The construct involved ligating the full-length containing EcoRI brainstem cDNA fragment from λ ZapII into the expression vector. Stable cell lines were selected as described above. The cell line used herein was designated L-α1B and was deposited with the American Type Culture Collection, 12301 Parklawn Drive, Rockville, Md. 20852, U.S.A. under the provisions of the Budapest Treaty for the International Recognition of the Deposit of Microorganisms for the Purposes of Patent Procedure. The cell line L-α1B was accorded ATCC Accession No. CR 11139, on Sep. 29, 1992.
Radioligand Binding Assays for α1 receptors:
Transfected cells from culture flasks were scraped into 5 ml of 5 mM Tris-HCl, 5 mM EDTA, pH 7.5, and lysed by sonication. The cell lysates were centrifuged at 1000 rpm for 5 min at 4° C., and the supernatant was centrifuged at 30,000× g for 20 min at 4° C. The pellet was suspended in 50 mM Tris-HCl, 1 mM MgCl2, and 0.1% ascorbic acid at pH 7.5. Binding of the α1 antagonist [^3 H]prazosin (0.5 nM, specific activity 76.2 Ci/mmol) to membrane preparations of LM(tk-) cells was done in a final volume of 0.25 ml and incubated at 37° C. for 20 min. Nonspecific binding was determined in the presence of […] phentolamine. The reaction was stopped by filtration through GF/B filters using a cell harvester. Inhibition experiments, routinely consisting of 7 concentrations of the tested compounds, were analyzed using a non-linear regression curve-fitting computer program to obtain Ki values.
The compounds described above were assayed using cloned human alpha adrenergic receptors. […] The binding affinities of several compounds are illustrated in the following table.
Binding affinities of selected compounds of the present invention at cloned human α1d, α1b and α1a receptors. (h=human)

Take `COC(=O)c1[nH]c(=O)n(CCCCCN2CCN(c3ccccc3C(N)=O)CC2)c1-c1cc(F)c(F)cc1F` [Compound 7, 1-(5-(4-(2-Aminocarbonylphenyl)piperazin-1-yl)pent-1-yl)-5-(2,4,5-trifluorophenyl)-2,3-dihydro-4-methoxylcarboxy-2(1H)-imidazolone]: the Ki was found to be 111 nM.
In the case of `COC(=O)c1[nH]c(=O)n(CCCCCN2CCC(C(=O)OC)(c3ccccc3)CC2)c1-c1ccc(F)c(F)c1` [Compound 1, 1-(5-(4-Methoxycarbonyl-4-phenylpiperidin-1-yl)pent-1-yl)-4-methoxycarbonyl-5-(3,4-difluorophenyl)-2,3-dihydro-2(1H)-imidazolone] it was 309 nM.
In the case of `COC(=O)c1[nH]c(=O)n(CCCCCN2CCC(C(=O)OC)(c3ccccc3)CC2)c1Cc1ccc(F)c(F)c1` [Compound 37, 5-(3,4-Difluorobenzyl)-2,3-dihydro-4-methoxycarbonyl-1-(5-(4-methoxycarbonyl-4-phenylpiperidin-1-yl)pent-1-yl)-2(1H) -imidazolone] it was 558 nM; in that of `COC(=O)c1[nH]c(=O)n(CCCCCN2CCC(C#N)(c3ccccc3)CC2)c1-c1ccc(F)c(F)c1` [Compound 2, 5-(3,4-Difluorophenyl)-2,3-dihydro-4-methoxycarbonyl-1-(5-(4-cyano-4-phenylpiperidin-1-yl)pent-1-yl)-2(1H)-imidazolone], 347 nM.
Consider `COC(=O)c1[nH]c(=O)n(CCCCCN2CCC(O)(c3ccccc3)CC2)c1-c1ccc(F)c(F)c1` [Compound 3, 5-(3,4-Difluorophenyl)-2,3-dihydro-4-methoxycarbonyl-1-(5-(4-hydroxy-4-phenylpiperidin-1-yl)pent-1-yl)-2(1H)-imidazolone], for which the Ki was 1580 nM.
`CCOC(=O)c1[nH]c(=O)n(CCCCCN2CCN(c3ccccc3C(N)=O)CC2)c1-c1ccc(F)c(F)c1` [Compound 6, 1-(5-(4-(2-Aminocarbonylphenyl)piperazin-1-yl)pent-1-yl)-4-ethoxycarbonyl-5-(3,4-difluorophenyl)-2,3-dihydro-2(1H)-imidazolone]: the Ki was 110 nM.
Turning to `COC(=O)c1ccccc1N1CCN(CCCCCn2c(-c3cc(F)c(F)c(F)c3)c(C(=O)OC)[nH]c2=O)CC1` [Compound 5, 5-(3,4,5-Trifluorophenyl)-2,3-dihydro-4-methoxycarbonyl-1-(5-(4-(2-methoxycarbonylphenyl)piperazin-1-yl)pent-1-yl)-2(1H)-imidazolone], the Ki worked out at 11.7 nM.
In the case of `COC(=O)c1[nH]c(=O)n(CCCCCN2CCN(c3ccccc3C(N)=O)CC2)c1-c1cc(F)c(F)c(F)c1` [Compound 4, 1-(5-(4-(2-Aminocarbonylphenyl)piperazin-1-yl)pent-1-yl)-5-(3,4,5-trifluorophenyl)-2,3-dihydro-4-methoxycarbonyl-2(1H)-imidazolone] it was 159 nM.
